The experiment relates to SARS-CoV-2 spike RBD. Kind of experiment: Spike RBD-mCRP binding ELISA. As to conditions: His-tagged proteins expressed in E. coli, n = 3. As to the method:
The interactions of the spike-RBD with mCRP or CRP were also examined by enzyme-linked immunosorbent assay (ELISA) using mCRP/CRP-specific mAbs. Briefly, 100 μL of spike-RBD (1μg/mL) in Tris-buffered saline (TBS; 10 mM Tris, 140 mM NaCl, pH 7.4) was added per well to coat in 96-well microplates overnight at 4°C. The wells were then washed three times with TBS containing 0.02% Tween-20 for 5 min and blocked with 1% bovine serum albumin (BSA) in TBS for 1 h at 37°C. Next, mCRP was added and the plates were incubated for 1 h at 37°C. The color was developed by adding tetramethyl benzidine (TMB) to the wells and the color development was stopped with 1 M H2SO4.
Background: An ELISA detects its analyte on a solid surface through an enzyme-linked reagent.

Take WT mCRP: the “binding of mCRP wild type or mutants to the spike RBD (ELISA)” value is “bound”.

The record behind these values is article PMC9304929, “The Cholesterol-Binding Sequence in Monomeric C-Reactive Protein Binds to the SARS-CoV-2 Spike Receptor-Binding Domain and Blocks Interaction With Angiotensin-Converting Enzyme 2” (Frontiers in Immunology, 2022).
